Laboratory results reported in patent EP3495350B1, “COMPOUND INHIBITING FORMATION OF C-MYC/MAX/DNA COMPLEX” (National Cancer Center, priority 2016, dated 2018).

Tests used:
[1] = system: MBT-2; assay: Cell based assay, cell viability (CellTiter-Glo), MBT-2; settings: 72 hours, 0 to 2 µM; read-out: cell based assay cell line 1 MBT-2 IC50
Protocol: (§1) Commercially available bladder cancer cell lines were treated with trypsin-EDTA and seeded in each well of a 96 well plate, followed by incubation for 24 hours. After incubation, candidate compounds were added to each well at a final concentration of 0 to 2 µM. The compound-treated cells were further incubated for 72 hours. Cell viability was measured using an ATP detection method (CellTiter-Glo Luminescent Cell Viability Assay, Promega).
(§2) The selectivity of the compounds of the present disclosure to cancer cells was evaluated in the same manner as described in "2. Cell based assay".

[2] = system: KU19-19; assay: Cell based assay, cell viability (CellTiter-Glo), KU19-19; settings: Homo sapiens, KU-19-19; 72 hours, 0 to 2 µM; read-out: cell based assay cell line 2 KU19-19 IC50
Protocol: as §1, §2

[3] = system: 253J; assay: Cell based assay, cell viability (CellTiter-Glo), 253J; settings: Homo sapiens; 72 hours, 0 to 2 µM; read-out: cell based assay cell line 3 253J IC50
Protocol: as §1, §2

[4] = system: UM-UC-3; assay: Cell based assay, cell viability (CellTiter-Glo), UM-UC-3; settings: Homo sapiens, UMUC3; 72 hours, 0 to 2 µM; read-out: cell based assay cell line 4 UM-UC-3 IC50
Protocol: as §1, §2

SMILES | IC50 [1] | IC50 [2] | IC50 [3] | IC50 [4]
CC(=O)c1c([S+]([O-])Cc2ccc([S+]([O-])C(F)(F)F)cc2)[nH]c2c(Br)ccc(Cl)c2c1=O (stereo not drawn) [Compound 64, 3-acetyl-8-bromo-5-chloro-2-((4-((trifluoromethyl)sulfinyl)benzyl)sulfinyl)quin olin-4(1H)-one] | 840 nM | 1410 nM | 950 nM | 1060 nM
CC(=O)c1c([S+]([O-])Cc2ccc(C(F)(F)F)cc2)[nH]c2c(Br)ccc(Cl)c2c1=O (stereo not drawn) [Compound 70, 3-acetyl-8-bromo-5-chloro-2-((4-(trifluoromethyl)benzyl)sulfinyl)quinolin-4(1H)-one] | 1330 nM | 1750 nM | 1040 nM | 1260 nM
CC(=O)c1c([S+]([O-])Cc2ccc(OC(F)(F)F)cc2)[nH]c2c(Br)ccc(Cl)c2c1=O (stereo not drawn) [Compound 71, 3-acetyl-8-bromo-5-chloro-2-((4-(trifluoromethoxy)benzyl)sulfinyl)quinolin-4(1H)-one] | 1470 nM | 1600 nM | 1110 nM | 1610 nM
CC(=O)c1c([S+]([O-])Cc2ccc(C(F)(F)F)o2)[nH]c2c(Br)ccc(Cl)c2c1=O (stereo not drawn) [Compound 72, 3-acetyl-8-bromo-5-chloro-2-(((5-(trifluoromethyl)furan-2-yl)methyl)sulfinyl)quinolin-4(1H)-one] | 1010 nM | 1370 nM | 830 nM | 820 nM
CC(=O)c1c([S+]([O-])Cc2ccc(C#N)cc2)[nH]c2c(Br)ccc(Cl)c2c1=O (stereo not drawn) [Compound 73, 4-(((3-acetyl-8-bromo-5-chloro-4-oxo-1,4-dihydroquinolin-2-yl)sulfinyl)methyl)benzonitrile] | 1000 nM | 2000 nM | 1340 nM | 1620 nM
CC(=O)c1c([S+]([O-])Cc2c(F)cccc2Cl)[nH]c2c(Br)ccc(Cl)c2c1=O (stereo not drawn) [Compound 74, 3-acetyl-8-bromo-5-chloro-2-((2-chloro-6-fluorobenzyl)sulfinyl)quinolin-4(1H)-one] | 1150 nM | 1640 nM | 810 nM | 1540 nM
COc1cc(S(F)(F)(F)(F)F)ccc1C[S+]([O-])c1[nH]c2c(Br)ccc(Cl)c2c(=O)c1C(C)=O (stereo not drawn) [Compound 75, 3-acetyl-8-bromo-5-chloro-2-((2-methoxy-4-(pentafluoro-λ6-sulfanyl)benzyl)sulfinyl)quinolin-4(1H)-one] | 1050 nM | 1210 nM | 860 nM | 1010 nM
CC(=O)c1c([S+]([O-])Cc2cc(F)cc(S(F)(F)(F)(F)F)c2)[nH]c2c(Br)ccc(Cl)c2c1=O (stereo not drawn) [Compound 76, 3-acetyl-8-bromo-5-chloro-2-((3-fluoro-5 - (pentafluoro-λ6-sulfanyl)benzyl)sulfinyl)quinolin-4(1H)-one] | 1860 nM | 1860 nM | 1240 nM | 1390 nM
CC(=O)c1c([S+]([O-])Cc2cccc(S(F)(F)(F)(F)F)c2)[nH]c2c(Br)ccc(Cl)c2c1=O (stereo not drawn) [Compound 77, 3-acetyl-8-bromo-5-chloro-2-((3-(pentafluoro-λ6-sulfanyl)benzyl)sulfinyl)quinolin-4(1H)-one] | 1450 nM | 1380 nM | 900 nM | 1180 nM
CC(=O)c1c([S+]([O-])Cc2c(F)c(F)c(F)c(F)c2F)[nH]c2c(Br)ccc(Cl)c2c1=O (stereo not drawn) [Compound 78, 3-acetyl-8-bromo-5-chloro-2-(((perfluorophenyl)methyl)sulfinyl)quinolin-4(1H)-one] | 1530 nM | > 2000 nM | 1290 nM | 1390 nM
CC(=O)c1c([S+]([O-])Cc2ccc(SC(F)(F)F)cc2)[nH]c2c(Cl)ccc(Cl)c2c1=O (stereo not drawn) [Compound 79, 3-acetyl-5,8-dichloro-2-((4-((trifluoromethyl)thio)benzyl)sulfinyl)quinolin-4(1H)-one] | > 2000 nM | > 2000 nM | > 2000 nM | > 2000 nM
CC(=O)c1c([S+]([O-])Cc2ccc(S(F)(F)(F)(F)F)cc2)[nH]c2c(F)ccc(F)c2c1=O (stereo not drawn) [Compound 80, 3-acetyl-5,8-difluoro-2-((4-(pentafluoro-λ6-sulfanyl)benzyl)sulfinyl)quinolin-4(1H)-one] | > 2000 nM | > 2000 nM | > 2000 nM | > 2000 nM
CC(=O)c1c([S+]([O-])Cc2ccc(C(F)(F)F)o2)[nH]c2c(F)ccc(F)c2c1=O (stereo not drawn) [Compound 81, 3-acetyl-5,8-difluoro-2-(((5-(trifluoromethyl)furan-2-yl)methyl)sulfinyl)quinolin-4(1H)-one] | > 2000 nM | > 2000 nM | > 2000 nM | > 2000 nM
CC(=O)c1c([S+]([O-])Cc2cc(C)on2)[nH]c2c(F)ccc(F)c2c1=O (stereo not drawn) [Compound 82, 3-acetyl-5,8-difluoro-2-(((5-methylisoxazol-3 - yl)methyl)sulfinyl)quinolin-4(1H)-one] | > 2000 nM | > 2000 nM | > 2000 nM | > 2000 nM
CC(=O)c1c([S+]([O-])Cc2ccc(I)cc2)[nH]c2c(Cl)ccc(Cl)c2c1=O (stereo not drawn) [Compound 83, 3-acetyl-5,8-dichloro-2-((4-iodobenzyl)sulfinyl)quinolin-4(1H)-one] | 1350 nM | 1600 nM | 1420 nM | 1310 nM
CC(=O)c1c([S+]([O-])Cc2cccnc2)[nH]c2c(Br)ccc(Cl)c2c1=O (stereo not drawn) [Compound 84, 3-acetyl-8-bromo-5-chloro-2-((pyridin-3-ylmethyl)sulfinyl)quinolin-4(1H)-one] | 670 nM | 1500 nM | 870 nM | 760 nM
CC(C)C(=O)c1c([S+]([O-])Cc2ccc(SC(F)(F)F)cc2)[nH]c2c(F)ccc(F)c2c1=O (stereo not drawn) [Compound 85, 5,8-difluoro-3-isobutyryl-2-((4-((trifluoromethyl)thio)benzyl)sulfinyl)quinolin-4(1H)-one] | > 2000 nM | > 2000 nM | > 2000 nM | > 2000 nM
Cc1cc(C[S+]([O-])c2[nH]c3c(Cl)ccc(Cl)c3c(=O)c2C(=O)C(C)C)no1 (stereo not drawn) [Compound 86, 5,8-dichloro-3-isobutyryl-2-(((5 - methylisoxazol-3-yl)methyl)sulfinyl)quinolin-4(1H)-one] | 810 nM | 1410 nM | 1060 nM | 1260 nM
O=C(c1ccccc1)c1c([S+]([O-])Cc2ccc(S(F)(F)(F)(F)F)cc2)[nH]c2c(F)ccc(F)c2c1=O (stereo not drawn) [Compound 87, 3-benzoyl-5,8-difluoro-2-((4-(pentafluoro-λ6-sulfanyl)benzyl)sulfinyl)quinolin-4(1H)-one] | > 2000 nM | > 2000 nM | > 2000 nM | > 2000 nM
Cc1cc(C[S+]([O-])c2[nH]c3c(Cl)ccc(Cl)c3c(=O)c2C(=O)c2ccccc2)no1 (stereo not drawn) [Compound 88, 3-benzoyl-5,8-dichloro-2-(((5-methylisoxazol-3-yl)methyl)sulfinyl)quinolin-4(1H)-one] | > 2000 nM | > 2000 nM | > 2000 nM | > 2000 nM
COC(=O)c1ccc(C[S+]([O-])c2[nH]c3c(Cl)ccc(Cl)c3c(=O)c2C(C)=O)o1 (stereo not drawn) [Compound 89, methyl 5-(((3-acetyl-5,8-dichloro-4-oxo-1,4-dihydroquinolin-2-yl)sulfinyl)methyl)furan-2-carboxylate] | 1270 nM | > 2000 nM | 1840 nM | 1470 nM
COC(=O)c1ccc(C[S+]([O-])c2[nH]c3c(Cl)ccc(Cl)c3c(=O)c2C(C)=O)cc1 (stereo not drawn) [Compound 91, methyl 4-(((3-acetyl-5,8-dichloro-4-oxo-1,4-dihydroquinolin-2-yl)sulfinyl)methyl)benzoate] | 1370 nM | > 2000 nM | > 2000 nM | 1560 nM
COc1cccc2[nH]c([S+]([O-])Cc3ccc(S(F)(F)(F)(F)F)cc3)c(C(C)=O)c(=O)c12 (stereo not drawn) [Compound 93, 3-acetyl-5-methoxy-2-((4-(pentafluoro-λ6-sulfanyl)benzyl)sulfinyl)quinolin-4(1H)-one] | > 2000 nM | > 2000 nM | > 2000 nM | > 2000 nM
COc1cccc2[nH]c([S+]([O-])Cc3cc(C)on3)c(C(C)=O)c(=O)c12 (stereo not drawn) [Compound 94, 3-acetyl-5-methoxy-2-(((5-methylisoxazol-3 - yl)methyl)sulfinyl)quinolin-4(1H)-one] | 1530 nM | > 2000 nM | > 2000 nM | > 2000 nM
Cc1cc(C[S+]([O-])c2[nH]c3c(Br)ccc(Cl)c3c(=O)c2C(=O)C(C)C)no1 (stereo not drawn) [Compound 95, 8-bromo-5-chloro-3-isobutyryl-2-(((5-methylisoxazol-3-yl)methyl)sulfinyl)quinolin-4(1H)-one] | 800 nM | 1290 nM | 770 nM | 1060 nM
Cc1cc(C[S+]([O-])c2[nH]c3c(Br)ccc(Cl)c3c(=O)c2C(=O)C2CC2)no1 (stereo not drawn) [Compound 96, 8-bromo-5-chloro-3-(cyclopropanecarbonyl)-2-(((5-methylisoxazol-3-yl)methyl)sulfinyl)quinolin-4(1H)-one] | 1060 nM | > 2000 nM | 1490 nM | 1630 nM
Cc1cc(C[S+]([O-])c2[nH]c3c(Cl)ccc(Cl)c3c(=O)c2C(=O)C2CC2)no1 (stereo not drawn) [Compound 97, 5,8-dichloro-3-(cyclopropanecarbonyl)-2-(((5 - methylisoxazol-3-yl)methyl)sulfinyl)quinolin-4(1H)-one] | 810 nM | 1620 nM | 1200 nM | 1270 nM
